Measured values reported in patent US20240116985A1, “STAPLED PEPTIDES AND METHODS THEREOF” (priority 2020, published 2024).
pIC50: −log10 of the molar value. Converted amounts (≈) assume the structure as drawn. Where two headings read alike, the source gives them in different places.

Legend:
[1] = target: T1, full-length beta-Catenin (Uniprot ID P35222) (Homo sapiens, UniProt P35222); assay: Fluorescence polarization IC50 (beta-catenin / 5FAM-TCF4 10-53 competition); type: binding
T1 construct: 10 nM full-length beta-Catenin (Uniprot ID P35222)
T1 sequence (P35222 1-781): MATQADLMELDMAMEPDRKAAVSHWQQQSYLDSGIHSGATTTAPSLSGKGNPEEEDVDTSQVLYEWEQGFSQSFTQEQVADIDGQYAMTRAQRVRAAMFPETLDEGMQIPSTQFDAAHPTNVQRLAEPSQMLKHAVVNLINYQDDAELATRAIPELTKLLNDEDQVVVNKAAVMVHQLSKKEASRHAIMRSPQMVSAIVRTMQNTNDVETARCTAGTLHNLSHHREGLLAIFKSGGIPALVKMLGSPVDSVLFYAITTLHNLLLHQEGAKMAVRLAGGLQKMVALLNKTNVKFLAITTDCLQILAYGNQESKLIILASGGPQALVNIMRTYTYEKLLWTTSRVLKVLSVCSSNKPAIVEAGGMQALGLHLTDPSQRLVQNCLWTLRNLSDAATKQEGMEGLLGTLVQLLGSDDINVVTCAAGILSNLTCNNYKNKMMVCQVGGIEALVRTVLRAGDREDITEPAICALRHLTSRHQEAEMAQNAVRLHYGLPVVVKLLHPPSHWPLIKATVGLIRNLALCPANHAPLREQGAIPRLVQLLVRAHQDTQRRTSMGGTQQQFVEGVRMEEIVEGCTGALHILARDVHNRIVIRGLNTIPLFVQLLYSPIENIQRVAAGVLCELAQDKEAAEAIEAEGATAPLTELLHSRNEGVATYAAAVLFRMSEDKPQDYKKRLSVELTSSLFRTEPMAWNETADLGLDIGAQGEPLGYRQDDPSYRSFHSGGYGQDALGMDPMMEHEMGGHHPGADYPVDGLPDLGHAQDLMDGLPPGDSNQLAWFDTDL

CHI Log D procedure = type: physicochemical; settings: for CHI Log D: pH 7.4; for chromatographic logD: pH 7.4, CHI Log D
Solubility in PBS = type: physicochemical
Procedure, shortened: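 Steps: ultracentrifuge the peptide PBS solution, inject the supernatant on HPLC, inject a 50 μM peptide DMSO solution as reference, then calculate solubility as area ratio (PBS/DMSO) × 50 uM.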

[2] = fluorescence polarization, read-out: beta-Catenin FP IC50

CC[C@H](C)[C@@H]1NC(=O)[C@H](CC(=O)O)NC(=O)[C@]2(CC=CCCCC3(CCCC=CCCCCCC[C@@](C)(C(=O)N[C@@H](Cc4ccccc4)C(=O)N[C@@H](Cc4csc5ccccc45)C(=O)N[C@@H](CCC(N)=O)C(N)=O)NC(=O)[C@H](CC(N)=O)NC(=O)[C@H](Cc4ccccc4)NC(=O)[C@H](C)NC(=O)[C@H](C)NC(=O)[C@H](CC(=O)O)NC(=O)[C@H](CC(=O)O)NC3=O)NC1=O)CCCN2C(C)=O (stereo partly drawn) [I-467, Ac-PL3-Asp-Ile-B5-Asp-Asp-Ala-Ala-Phe-Asn-S8-Phe-BztA-Gln-NH2]
pIC50 [1, 2]: 7.36
pIC50 ([1]; read-out: FP EC50): 7.36
CHI Log D (CHI Log D procedure): 2.255
Solubility (Solubility in PBS): 50 µM (≈ 92.8 µg/mL)

CC[C@H](C)[C@@H]1NC(=O)[C@H](CC(=O)O)NC(=O)[C@]2(CC=CCCCC3(CCCC=CCCCCCC[C@@](C)(C(=O)N[C@@H](Cc4ccccc4)C(=O)N[C@@H](Cc4csc5ccccc45)C(=O)N[C@@H](CCC(N)=O)C(N)=O)NC(=O)[C@H](CC(N)=O)NC(=O)[C@H](Cc4ccccc4)NC(=O)[C@H](C)NC(=O)[C@H](C)NC(=O)[C@H](CC(=O)O)NC(=O)[C@H](CC(=O)O)NC3=O)NC1=O)CCCN2C(C)=O (stereo partly drawn) [I-468, Ac-PL3-Asp-Ile-B5-Asp-Asp-Ala-Ala-Phe-Asn-S8-Phe-BztA-Gln-NH2]
pIC50 [1, 2]: 7.57
pIC50 ([1]; read-out: FP EC50): 7.57
CHI Log D (CHI Log D procedure): 2.292
Solubility (Solubility in PBS): 41 µM (≈ 76.1 µg/mL)

CC[C@H](C)[C@@H]1NC(=O)[C@H](CC(=O)O)NC(=O)[C@]2(CC=CCCCC3(CCCC=CCCCCCC[C@@](C)(C(=O)N[C@@H](Cc4ccccc4)C(=O)N[C@@H](Cc4csc5ccccc45)C(=O)N[C@@H](Cc4c[nH]cn4)C(N)=O)NC(=O)[C@H](CCC(N)=O)NC(=O)[C@H](Cc4ccccc4)NC(=O)[C@H](C)NC(=O)[C@H](C)NC(=O)[C@H](CCC(=O)O)NC(=O)[C@H](CC(=O)O)NC3=O)NC1=O)CCCN2C(C)=O (stereo partly drawn) [I-471, Ac-PL3-Asp-Ile-B5-Asp-Glu-Ala-Ala-Phe-Gln-S8-Phe-BztA-His-NH2]
pIC50 [1, 2]: 7.28
chromatographic logD (CHI Log D procedure): 2.43
Solubility (Solubility in PBS; Solubility (uM)): 13 µM (≈ 24.6 µg/mL)

CC[C@H](C)[C@@H]1NC(=O)[C@H](CC(=O)O)NC(=O)[C@]2(CC=CCCCC3(CCCC=CCCCCCC[C@@](C)(C(=O)N[C@@H](Cc4ccccc4)C(=O)N[C@@H](Cc4csc5ccccc45)C(=O)N[C@@H](Cc4c[nH]cn4)C(N)=O)NC(=O)[C@H](CC(N)=O)NC(=O)[C@H](Cc4ccccc4)NC(=O)[C@H](C)NC(=O)[C@H](C)NC(=O)[C@H](CCC(=O)O)NC(=O)[C@H](CC(=O)O)NC3=O)NC1=O)CCCN2C(C)=O (stereo partly drawn) [I-472, Ac-PL3-Asp-Ile-B5-Asp-Glu-Ala-Ala-Phe-Asn-S8-Phe-BztA-His-NH2]
pIC50 [1, 2]: 7.21
chromatographic logD (CHI Log D procedure): 2.42
Solubility (Solubility in PBS; Solubility (uM)): 36 µM (≈ 67.6 µg/mL)

CC[C@@H]1NC(=O)[C@H](CC(=O)O)NC(=O)[C@]2(CC=CCCCC3(CCCC=CCCCCCC[C@@](C)(C(=O)N[C@@H](Cc4ccccc4)C(=O)N[C@@H](Cc4csc5ccccc45)C(=O)N[C@@H](CCC(N)=O)C(N)=O)NC(=O)[C@H](CC(N)=O)NC(=O)[C@H](Cc4ccccc4)NC(=O)[C@H](C)NC(=O)[C@H](C)NC(=O)[C@H](CCC(=O)O)NC(=O)[C@H](CC(=O)O)NC3=O)NC1=O)CCCN2C(C)=O (stereo partly drawn) [I-473, Ac-PL3-Asp-Abu-B5-Asp-Glu-Ala-Ala-Phe-Asn-S8-Phe-BztA-Gln-NH2]
pIC50 [1, 2]: 6.92
pIC50 ([1]; read-out: FP EC50): 6.92
CHI Log D (CHI Log D procedure): 2.076
Solubility (Solubility in PBS): 39 µM (≈ 71.8 µg/mL)

CC[C@@H]1NC(=O)[C@H](CC(=O)O)NC(=O)[C@]2(CC=CCCCC3(CCCC=CCCCCCC[C@@](C)(C(=O)N[C@@H](Cc4ccccc4)C(=O)N[C@@H](Cc4csc5ccccc45)C(=O)N[C@@H](CCC(N)=O)C(N)=O)NC(=O)[C@H](CC(N)=O)NC(=O)[C@H](Cc4ccccc4)NC(=O)[C@H](C)NC(=O)[C@H](C)NC(=O)[C@H](CCC(=O)O)NC(=O)[C@H](CC(=O)O)NC3=O)NC1=O)CCCN2C(C)=O (stereo partly drawn) [I-474, Ac-PL3-Asp-Abu-B5-Asp-Glu-Ala-Ala-Phe-Asn-S8-Phe-BztA-Gln-NH2]
pIC50 [1, 2]: 7.37
pIC50 ([1]; read-out: FP EC50): 7.37
CHI Log D (CHI Log D procedure): 2.114
Solubility (Solubility in PBS): 50 µM (≈ 92.1 µg/mL)

CC[C@@H](C)[C@@H]1NC(=O)[C@H](CC(=O)O)NC(=O)[C@]2(CC=CCCCC3(CCCC=CCCCCCC[C@@](C)(C(=O)N[C@@H](Cc4ccccc4)C(=O)N[C@@H](Cc4csc5ccccc45)C(=O)N[C@@H](CCC(N)=O)C(N)=O)NC(=O)[C@H](CC(N)=O)NC(=O)[C@H](Cc4ccccc4)NC(=O)[C@H](C)NC(=O)[C@H](C)NC(=O)[C@H](CCC(=O)O)NC(=O)[C@H](CC(=O)O)NC3=O)NC1=O)CCCN2C(C)=O (stereo partly drawn) [I-475, Ac-PL3-Asp-aIle-B5-Asp-Glu-Ala-Ala-Phe-Asn-S8-Phe-BztA-Gln-NH2]
pIC50 [1, 2]: 6.99
pIC50 ([1]; read-out: FP EC50): 6.99
CHI Log D (CHI Log D procedure): 2.277
Solubility (Solubility in PBS): 43 µM (≈ 80.4 µg/mL)

CC[C@@H](C)[C@@H]1NC(=O)[C@H](CC(=O)O)NC(=O)[C@]2(CC=CCCCC3(CCCC=CCCCCCC[C@@](C)(C(=O)N[C@@H](Cc4ccccc4)C(=O)N[C@@H](Cc4csc5ccccc45)C(=O)N[C@@H](CCC(N)=O)C(N)=O)NC(=O)[C@H](CC(N)=O)NC(=O)[C@H](Cc4ccccc4)NC(=O)[C@H](C)NC(=O)[C@H](C)NC(=O)[C@H](CCC(=O)O)NC(=O)[C@H](CC(=O)O)NC3=O)NC1=O)CCCN2C(C)=O (stereo partly drawn) [I-476, Ac-PL3-Asp-aIle-B5-Asp-Glu-Ala-Ala-Phe-Asn-S8-Phe-BztA-Gln-NH2]
pIC50 [1, 2]: 7.32
pIC50 ([1]; read-out: FP EC50): 7.32
CHI Log D (CHI Log D procedure): 2.317
Solubility (Solubility in PBS): 49 µM (≈ 91.6 µg/mL)

CC(=O)N1CCC[C@]12CC=CCCCC1(CCCC=CCCCCCC[C@@](C)(C(=O)N[C@@H](Cc3ccccc3)C(=O)N[C@@H](Cc3csc4ccccc34)C(=O)N[C@@H](CCC(N)=O)C(N)=O)NC(=O)[C@H](CCC(N)=O)NC(=O)[C@H](Cc3ccccc3)NC(=O)[C@H](C)NC(=O)[C@H](C)NC(=O)[C@H](CCC(=O)O)NC(=O)[C@H](CC(=O)O)NC1=O)NC(=O)[C@H]([C@@H](C)O)NC(=O)[C@H](CC(=O)O)NC2=O (stereo partly drawn) [I-477, Ac-PL3-Asp-Thr-B5-Asp-Glu-Ala-Ala-Phe-Gln-S8-Phe-BztA-Gln-NH2]
pIC50 [1, 2]: 6.92
chromatographic logD (CHI Log D procedure): 2
Solubility (Solubility in PBS; Solubility (uM)): 49 µM (≈ 91.7 µg/mL)

CC(=O)N1CCC[C@]12CC=CCCCC1(CCCC=CCCCCCC[C@@](C)(C(=O)N[C@@H](Cc3ccccc3)C(=O)N[C@@H](Cc3csc4ccccc34)C(=O)N[C@@H](Cc3cn(C)cn3)C(N)=O)NC(=O)[C@H](CC(N)=O)NC(=O)[C@H](Cc3ccccc3)NC(=O)[C@H](C)NC(=O)[C@H](C)NC(=O)[C@H](CCC(=O)O)NC(=O)[C@H](CC(=O)O)NC1=O)NC(=O)[C@H](C)NC(=O)[C@H](CC(=O)O)NC2=O (stereo partly drawn) [I-478, Ac-PL3-Asp-Ala-B5-Asp-Glu-Ala-Ala-Phe-Asn-S8-Phe-BztA-1MeH-NH2]
pIC50 [1, 2]: 7.15
pIC50 ([1]; read-out: FP EC50): 7.15
CHI Log D (CHI Log D procedure): 2.052
Solubility (Solubility in PBS): 42 µM (≈ 77.7 µg/mL)

CC(=O)N1CCC[C@]12CC=CCCCC1(CCCC=CCCCCCC[C@@](C)(C(=O)N[C@@H](Cc3ccccc3)C(=O)N[C@@H](Cc3csc4ccccc34)C(=O)N[C@@H](Cc3cn(C)cn3)C(N)=O)NC(=O)[C@H](CC(N)=O)NC(=O)[C@H](Cc3ccccc3)NC(=O)[C@H](C)NC(=O)[C@H](C)NC(=O)[C@H](CCC(=O)O)NC(=O)[C@H](CC(=O)O)NC1=O)NC(=O)[C@H](C)NC(=O)[C@H](CC(=O)O)NC2=O (stereo partly drawn) [I-479, Ac-PL3-Asp-Ala-B5-Asp-Glu-Ala-Ala-Phe-Asn-S8-Phe-BztA-1MeH-NH2]
pIC50 [1, 2]: 7.57
pIC50 ([1]; read-out: FP EC50): 7.57
CHI Log D (CHI Log D procedure): 2.094
Solubility (Solubility in PBS): 38 µM (≈ 70.3 µg/mL)

CC(=O)N1CCC[C@]12CC=CCCCC1(CCCC=CCCCCCC[C@@](C)(C(=O)N[C@@H](Cc3ccccc3)C(=O)N[C@@H](Cc3csc4ccccc34)C(=O)N[C@@H](CCC(N)=O)C(N)=O)NC(=O)[C@H](CCC(N)=O)NC(=O)[C@H](Cc3cccs3)NC(=O)[C@H](C)NC(=O)[C@H](C)NC(=O)[C@H](CCC(=O)O)NC(=O)[C@H](CC(=O)O)NC1=O)NC(=O)[C@H](C)NC(=O)[C@H](CC(=O)O)NC2=O (stereo partly drawn) [I-486, Ac-PL3-Asp-Ala-B5-Asp-Glu-Ala-Ala-2Thi-Gln-S8-Phe-BztA-Gln-NH2]
pIC50 [1, 2]: 6.83
pIC50 ([1]; read-out: FP EC50): 6.83
CHI Log D (CHI Log D procedure): 1.97
Solubility (Solubility in PBS): 50 µM (≈ 92.4 µg/mL)
